From US20140031388A1, “AKT INACTIVATION BY TOCOPHERYL DERIVATIVES” (priority 2012, published 2014)
Where two headings read alike, the source gives them in different places.

Tests used:
[1] = test system: LNCaP cells; experiment: MTT viability assay, LNCaP; format: cell-based; settings: Homo sapiens, 1% FBS-containing or serum-free RPMI 1640 medium for 24 h
Method: (§1) The prostate cancer cell lines, LNCaP and PC-3, were purchased from American Type Culture Collection (Manassas, Va.) and maintained in RPMI 1640 medium containing 10% heat-inactivated fetal bovine serum at 37° C. in a humidified incubator containing 5% CO2. The LNCaP-abl cells were a generous gift from Dr. Qianben Wang (The Ohio State University). Normal prostate epithelial cells were purchased from Lonza (Walkersville, Md.) and were cultured in the vendor-recommended defined prostate epithelial cell growth medium. For experiments, LNCaP cells were plated on poly-D-lysine-coated culture flasks at a density of 12,000 cells per cm^2 surface area for 24 hours, followed by treatment with test agents in serum-free RPMI 1640 medium. The α- and γ-tocopherols were purchased from Sigma-Aldrich (St. Louis, Mo.). The tocopherol derivatives, α- and γ-VE5, were synthesized by the inventors.
(§2) LNCaP cells were plated into poly-D-lysine-coated 96-well plates and PC-3 and LNCaP-abl cells into uncoated plates at the density of 5,000 cells per well in the presence of 10% FBS. Normal prostate epithelial cells were plated into uncoated plates at a density of 8,000 cells per well. […] After 24 hours of treatment, cells were incubated with MTT [3-(4,5-dimethylthiazol-2-yl)-2,5-diphenyl-2H-tetrazolium bromide] (TCI America; 0.5 mg/ml, final concentration) for an additional 2 hours. The medium was then removed from each well and replaced with DMSO to dissolve the reduced MTT dye for subsequent colorimetric measurement of absorbance at 595 nm. Cell viabilities are calculated as percentages of that in the corresponding vehicle-treated control group.

[2] = test system: PC-3 cells; experiment: MTT viability assay, PC-3; format: cell-based; settings: Homo sapiens
Method: as §1, §2

[3] = target: T1, PH domain of Akt (GST-PH domain fusion protein) (Homo sapiens, UniProt P31749); experiment: Surface plasmon resonance binding, Akt PH domain; settings: Table 3; binding affinities to the Akt PH domain; read-out: Kd
T1 construct: made in house
T1 sequence (P31749 5-108 limits assumed): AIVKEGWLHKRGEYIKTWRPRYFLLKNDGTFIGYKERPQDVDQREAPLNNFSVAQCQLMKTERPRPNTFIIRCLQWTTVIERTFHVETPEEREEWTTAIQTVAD
Description: The cDNA fragments corresponding to the putative PH domain sequences of PHLPP1 (+115 to +372), PDK1 (+1225 to +1671), Akt1 (+1 to +447) and ILK (+538 to +646) were PCR-amplified using the plasmids pcDNA-HA-PHLPP1, pWZL-Neo-Myr-FLAG-PDPK1, pcDNA-HA-PKB-T308D-S473D, and pCMV-SPORT-ILK (Addgene) as templates. The PCR products were then cloned into EcoRI/XhoI sites of the pGEX-4T1 expression vector (GE Healthcare Life Sciences) to generate four constructs (pGEX-4T1-PHLPP1, pGEX-4T1-PDPK1, pGEX-4T1-AKT1, pGEX-4T1-ILK) for the expression of GST-PH domain fusion proteins. The mutated Akt1 Y38G PH domain was generated from pGEX-4T1-AKT1 by site-directed mutagenesis using the QuikChange II XL Site-Directed Mutagenesis Kit (Agilent Technologies). The expression and purification of GST-PH domain fusion proteins were performed essentially as described previously. Thomas et al., Curr Biol 12, 1256 (2002). The purified PH domains were analyzed by SDS-PAGE using an overloaded gel with purities were estimated to be >95% using ImageJ software.
Binding experiments were performed using a Biacore T100 system (GE Healthcare, Piscataway, N.J.). The GST-PH domain fusion proteins were immobilized on a CM5 S Sensorchip using Biacore's Amine Coupling Kit to a level of 17,000 response units. VE5 compounds and di-octanoyl PIP3 at concentrations ranging from 0.1 to 100 μM and 1 to 20 μm, respectively, were injected at a high flow rate (30 μL/min) over the biosensor surface for binding analyses. DMSO concentrations in all samples and running buffer were 1% (v/v) or less. Data were analyzed using Biacore T100 Evaluation Software.

[4] = test system: Normal prostate epithelial cells; experiment: Viability / apoptosis in normal prostate epithelial cells; format: cell-based
Method: as §1
(§3) LNCaP cells were plated into poly-D-lysine-coated 96-well plates and PC-3 and LNCaP-abl cells into uncoated plates at the density of 5,000 cells per well in the presence of 10% FBS. Normal prostate epithelial cells were plated into uncoated plates at a density of 8,000 cells per well. Exposure to test agents in serum-free medium was initiated 24 hours later. After 24 hours of treatment, cells were incubated with MTT [3-(4,5-dimethylthiazol-2-yl)-2,5-diphenyl-2H-tetrazolium bromide] (TCI America; 0.5 mg/ml, final concentration) for an additional 2 hours. The medium was then removed from each well and replaced with DMSO to dissolve the reduced MTT dye for subsequent colorimetric measurement of absorbance at 595 nm. Cell viabilities are calculated as percentages of that in the corresponding vehicle-treated control group.

[5] = test system: phosphorylation of Ser473 in Akt; experiment: Western blot of Akt phosphorylation at Ser473; format: cell-based; settings: LNCaP and PC-3 cells, Thr308 not altered
Method: (§4) Cells were exposed to the test agents in 10-cm dishes for 24 hours and then collected by scraping. The cell pellets were washed once with PBS, and then lysed at 4° C. over 30 min of incubation in a sodium dodecyl sulfate (SDS) lysis buffer containing 1% SDS, 50 mM Tris HCl (pH 8.1), 10 mM EDTA and […] protease inhibitor cocktail (Sigma-Aldrich). The cell debris was pelleted by centrifugation for 20 min at 14,000×g, and 1 μl of each supernatant was used for determination of protein concentration using a colorimetric bicinchoninic assay (Pierce, Rockford, Ill.). The remaining sample was added to equal volume of 2×SDS-polyacrylamide gel electrophoresis sample loading buffer (62.5 mM Tris-HCl, pH 6.8, 4% SDS, 5% β-mercaptoethanol, 20% glycerol, 0.1% bromophenol blue), followed by incubation in boiling water for 5 min. Equivalent amounts of total protein were resolved in SDS-polyacrylamide gels, and then transferred to nitrocellulose membranes using a semidry transfer cell. The transblotted membrane was washed twice with Tris-buffered saline containing 0.1% Tween 20 (TBST). After blocking with TBST containing 5% nonfat milk for 40 min, the membrane was incubated with the appropriate primary antibody (1:1000) in TBST-1% nonfat milk at 4° C. overnight. The membrane was then washed three times with TBST for a total of 15 min, followed by incubation with goat anti-rabbit or anti-mouse IgG-horseradish peroxidase conjugates (1:2000) for 1 hour at room temperature and four washes with TBST for a total of 1 hour. The immunoblots were visualized by enhanced chemiluminescence (GE Healthcare Life Sciences).

[6] = test system: LNCaP and PC-3 cells; experiment: MTT viability assay, one value stated for both prostate cancer lines; format: cell-based; settings: MTT, serum-free medium; one value for LNCaP and PC-3; read-out: IC50, antiproliferative effect / viability
Method: as §1, §3

[7] = test system: mTORC2 (mTOR, rictor, SGK, PKCα); experiment: Western blot of mTORC2 components and downstream targets; format: cell-based
Method: as §4

[8] = PC-3, 1% FBS-containing or serum-free RPMI 1640 medium for 24 h, read-out: IC50 (μM) PC-3
[9] = PC-3, Table 4, effect of chain length on antiproliferative activity, read-out: IC50
[10] = Table 3, antitumor activities against PC-3 cells, read-out: IC50

SMILES | IC50 [1] | IC50 [2, 8] | other results
CC(C)CCCC1(C)CCc2cc(N)ccc2O1 (racemic) [Compound 32, 2-methyl-2-(4-methylpentyl)chroman-6-amine] | > 50 µM |  | 
CCCCCCCCC1(C)CCc2cc(O)cc(F)c2O1 (stereo not drawn) [Compound 12, 8-fluoro-2-methyl-2-octylchroman-6-ol] |  | 8.5 µM | IC50 [2, 9]: 8.5 µM
CC(C)CCCC1(C)CCc2c(O)cc(N3CCCC3)cc2O1 (racemic) [Compound 36, 2-methyl-2-(4-methylpentyl)-7-(pyrrolidin-1-yl)chroman-5-ol] | 21 µM |  | 
Cc1c(C)c2c(c(C)c1O)CC[C@@](C)(CCCC(C)CCCC(C)C)O2 (stereo partly drawn) [Compound 28, (2R)-2-(4,8-dimethylnonyl)-2,5,7,8-tetramethylchroman-6-ol] | 42 µM |  | 
COCCCC1(C)CCc2cc(O)cc(F)c2O1 (stereo not drawn) [Compound 11, 8-fluoro-2-(3-methoxypropyl)-2-methyl-chroman-6-ol] |  | > 30 µM | IC50 [2, 9]: > 30 µM
CC(C)CCCC1(C)CCc2c(O)cccc2O1 (racemic) [Compound 31, 2-methyl-2-(4-methylpentyl)chroman-5-ol] | 18 µM |  | 
Cc1cc(O)cc2c1OC(C)(CCCC(C)C)CC2 (stereo not drawn) [Compound 2, 2,8-dimethyl-2-(4-methylpentyl)chroman-6-ol] |  | 9 µM | Kd [3]: 0.6 µM; IC50 [2, 10]: 9 µM
Cc1c(O)cc2c(c1C)O[C@](C)(CCC[C@H](C)CCC[C@H](C)CCCC(C)C)CC2 [γ-tocopherol, reference compound] |  |  | apoptosis in normal prostate epithelial cells [4]: resistant; effect on phosphorylation of Akt at Ser473 [5]: dose-dependently reduced; IC50 [6]: 100 to 150 µM; abundance or phosphorylation of mTORC2 components and targets (mTOR, rictor, SGK, PKCα) [7]: no effect
Cc1c(O)cc2c(c1C)O[C@](C)(CCCC(C)CCCC(C)C)CC2 (stereo partly drawn) [Compound 27, (2R)-2-(4,8-dimethylnonyl)-2,7,8-trimethylchroman-6-ol] | 30 µM |  | 
CC(C)CCCC1(C)CCc2cc(O)cc(C(F)(F)F)c2O1 (racemic) [Compound 3, 2-methyl-2-(4-methylpentyl)-8-(trifluoro-methyl)chroman-6-ol] |  | 8 µM | Kd [3]: 0.7 µM; IC50 [2, 10]: 8 µM
COc1ccc2c(c1)CCC(C)(CCCC(C)C)O2 (racemic) [Compound 30, 6-methoxy-2-methyl-2-(4-methylpentyl)-chroman] | 40 µM |  | 
Cc1c(O)cc2c(c1C)NC(C)(CCCC(C)C)CC2 (stereo not drawn) [Compound 9, 2,7,8-trimethyl-2-(4-methylpentyl)-1,2,3,4-tetrahydroquinolin-6-ol] |  | 15 µM | Kd [3]: 0.1 µM; IC50 [2, 10]: 15 µM
CC(C)CCCC1(C)CC(=O)c2cc(O)ccc2O1 (racemic) [Compound 33, 6-hydroxy-2-methyl-2-(4-methylpentyl)chroman-4-one] | 30 µM |  | 
Cc1c(O)cc2c(c1C)OC(C)(CCCC(C)C)CC2 (racemic) [rac-VE5] | 20 µM |  | 
CC(C)CCCC1(C)CCc2cc(O)cc(O)c2O1 (stereo not drawn) [Compound 4, 2-methyl-2-(4-methylpentyl)chroman-6,8-diol] |  | 27 µM | Kd [3]: 2 µM; IC50 [2, 10]: 27 µM
CC(C)CCCC1(C)CCc2cc(O)cc(Br)c2O1 (stereo not drawn) [Compound 8, 8-bromo-2-methyl-2-(4-methylpentyl)-chroman-6-ol] |  | 7 µM | Kd [3]: 0.65 µM; IC50 [2, 10]: 7 µM
CC(C)CCCC1(C)CCc2cc(O)ccc2O1 (racemic) [Compound 29, 2-methyl-2-(4-methylpentyl)chroman-6-ol] | 40 µM |  | 
Cc1cc2c(cc1O)C(=O)CC(C)(CCCC(C)C)O2 (racemic) [Compound 34, 6-hydroxy-2,7-dimethyl-2-(4-methylpentyl)chroman-4-one] | 30 µM |  | 
CCc1ccc(CCC2(C)CCc3cc(O)cc(F)c3O2)cc1 (stereo not drawn) [Compound 13, 2-(4-ethylphenethyl)-8-fluoro-2-methyl-chroman-6-ol] |  | 9 µM | IC50 [2, 9]: 9 µM
CC(C)CCCC1(C)CCc2ccc(O)c(O)c2O1 (racemic) [Compound 35, 2-methyl-2-(4-methylpentyl)chroman-7,8-diol] | > 50 µM |  | 
COc1cc(O)cc2c1OC(C)(CCCC(C)C)CC2 (stereo not drawn) [Compound 5, 8-methoxy-2-methyl-2-(4-methylpentyl)-chroman-6-ol] |  | 28 µM | Kd [3]: 3.1 µM; IC50 [2, 10]: 28 µM
CC(C)CCCC1(C)CC(=O)c2c(O)cc(N3CCCC3)cc2O1 (racemic) [Compound 37, 5-hydroxy-2-methyl-2-(4-methylpentyl)-7-(pyrrolidin-1-yl)chroman-4-one] | > 50 µM |  | 
CCCCCCCCC1(C)CCc2cc(O)cc(C)c2N1 (stereo not drawn) [Compound 10, 2,8-dimethyl-2-octyl-1,2,3,4-tetrahydro-quinolin-6-ol] |  | 8.5 µM | IC50 [2, 9]: 8.5 µM
CC(C)CCCC1(C)CCc2cc(O)cc(F)c2O1 (stereo not drawn) [Compound 7, 8-fluoro-2-methyl-2-(4-methylpentyl)-chroman-6-ol] |  | 7 µM | Kd [3]: 0.5 µM; IC50 [2, 10]: 7 µM
